ChEMBL document CHEMBL1255278, “Caspofungin prolongs survival of transiently neutropenic rats with advanced-stage invasive pulmonary aspergillosis” (Antimicrob Agents Chemother, 2008)
In brackets after ≈: the same amount, converted by molar mass.

Legend:
[1] = test system: Rattus norvegicus; assay: Renal toxicity in neutropenic rat assessed as blood urea nitrogen level in serum at 10 mg/kg/day, ip administered 72 hrs post infection for 3 days followed by 4 mg/kg/day, ip for 7 days measured on day 13 after infection (Rvb=5.8+/-0.4 mmol/l); type: organism-based; details: in vivo
[2] = test system: Rattus norvegicus; assay: Hepatotoxicity in neutropenic rat assessed as ASAT level in serum at 10 mg/kg/day, ip administered 72 hrs post infection for 3 days followed by 4 mg/kg/day, ip for 7 days measured on day 13 after infection (Rvb=46.6+/-6.1 U/l); type: toxicity, organism-based; details: in vivo
[3] = test system: Rattus norvegicus; assay: Renal toxicity in neutropenic rat assessed as creatine level in serum at 4 mg/kg/day, ip administered 72 hrs post infection for 10 days measured on day 6 after infection (Rvb=34.8+/-5.8 umol/l); type: organism-based; parameters: route intraperitoneal; details: in vivo
[4] = AUC in neutropenic rat at 10 mg/kg/day after 3 days; type: ADME, organism-based; details: plasma
[5] = test system: Rattus norvegicus; assay: Hepatotoxicity in neutropenic rat assessed as ALAT level in serum at 10 mg/kg/day, ip administered 72 hrs post infection for 10 days measured on day 6 after infection (Rvb=43.9+/-7.9 U/l); type: toxicity, organism-based; parameters: route intraperitoneal; details: in vivo
[6] = test system: Aspergillus fumigatus; assay: Antifungal activity against Aspergillus fumigatus infected in neutropenic rat assessed as survival of rat at 4 mg/kg/day, ip administered 16 hrs post infection for 10 days; type: functional; details: route intraperitoneal
[7] = test system: Rattus norvegicus; assay: Hepatotoxicity in neutropenic rat assessed as ASAT level in serum at 4 mg/kg/day, ip administered 72 hrs post infection for 10 days measured on day 13 after infection (Rvb=46.6+/-6.1 U/l); type: toxicity, organism-based; parameters: route intraperitoneal; details: in vivo
[8] = test system: Rattus norvegicus; assay: Renal toxicity in neutropenic rat assessed as blood urea nitrogen level in serum at 10 mg/kg/day, ip administered 72 hrs post infection for 10 days measured on day 6 after infection (Rvb=4.4+/-0.5 mmol/l); type: organism-based; parameters: route intraperitoneal; details: in vivo
[9] = test system: Rattus norvegicus; assay: Hepatotoxicity in neutropenic rat assessed as ASAT level in serum at 10 mg/kg/day, ip administered 72 hrs post infection for 10 days measured on day 6 after infection (Rvb=51.2+/-9.4 U/l); type: toxicity, organism-based; parameters: route intraperitoneal; details: in vivo
[10] = AUC in neutropenic rat at 10 mg/kg/day for 3 days followed by 4 mg/kg/day for 7 days measured after 10 days; type: ADME, organism-based; details: plasma
[11] = test system: Rattus norvegicus; assay: Hepatotoxicity in neutropenic rat assessed as ASAT level in serum at 4 mg/kg/day, ip administered 72 hrs post infection for 10 days measured on day 6 after infection (Rvb=51.2+/-9.4 U/l); type: toxicity, organism-based; parameters: route intraperitoneal; details: in vivo
[12] = test system: Rattus norvegicus; assay: Hepatotoxicity in neutropenic rat assessed as ALAT level in serum at 10 mg/kg/day, ip administered 72 hrs post infection for 10 days measured on day 13 after infection (Rvb=51.3+/-5.2 U/l); type: toxicity, organism-based; parameters: route intraperitoneal; details: in vivo
[13] = test system: Rattus norvegicus; assay: Hepatotoxicity in neutropenic rat assessed as ASAT level in serum at 10 mg/kg/day, ip administered 72 hrs post infection for 3 days followed by 4 mg/kg/day, ip for 7 days measured on day 6 after infection (Rvb=51.2+/-9.4 U/l); type: toxicity, organism-based; details: in vivo
[14] = test system: Rattus norvegicus; assay: Renal toxicity in neutropenic rat assessed as […] in serum at 10 mg/kg/day, ip administered 72 hrs post infection for 3 days followed by 4 mg/kg/day, ip for 7 days measured on day 13 after infection (Rvb=26.7+/-6.1 umol/l); type: organism-based; details: in vivo
[15] = test system: Rattus norvegicus; assay: Renal toxicity in neutropenic rat assessed as blood urea nitrogen level in serum at 10 mg/kg/day, ip administered 72 hrs post infection for 10 days measured on day 13 (Rvb=5.8+/-0.4 mmol/l); type: organism-based; parameters: route intraperitoneal; details: in vivo
[16] = test system: Rattus norvegicus; assay: Renal toxicity in neutropenic rat assessed as blood urea nitrogen level in serum at 10 mg/kg/day, ip administered 72 hrs post infection for 3 days followed by 4 mg/kg/day, ip for 7 days measured on day 6 after infection (Rvb=4.4+/-0.5 mmol/l); type: organism-based; details: in vivo
[17] = test system: Rattus norvegicus; assay: Hepatotoxicity in neutropenic rat assessed as ASAT level in serum at 10 mg/kg/day, ip administered 72 hrs post infection for 10 days measured on day 13 after infection (Rvb=46.6+/-6.1 U/l); type: toxicity, organism-based; parameters: route intraperitoneal; details: in vivo
[18] = test system: Rattus norvegicus; assay: Renal toxicity in neutropenic rat assessed as creatine level in serum at 10 mg/kg/day, ip administered 72 hrs post infection for 3 days followed by 4 mg/kg/day, ip for 7 days measured on day 6 after infection (Rvb=34.8+/-5.8 umol/l); type: organism-based; details: in vivo
[19] = test system: Rattus norvegicus; assay: Renal toxicity in neutropenic rat assessed as creatine level in serum at 10 mg/kg/day, ip administered 72 hrs post infection for 10 days measured on day 13 after infection (Rvb=26.7+/-6.1 umol/l); type: organism-based; parameters: route intraperitoneal; details: in vivo
[20] = test system: Aspergillus fumigatus; assay: Antifungal activity against Aspergillus fumigatus infected in neutropenic rat assessed as survival of rat at 4 mg/kg/day, ip administered 24 hrs post infection for 10 days; type: functional; details: route intraperitoneal
[21] = test system: Rattus norvegicus; assay: Hepatotoxicity in neutropenic rat assessed as ALAT level in serum at 4 mg/kg/day, ip administered 72 hrs post infection for 10 days measured on day 6 after infection (Rvb=43.9+/-7.9 U/l); type: toxicity, organism-based; parameters: route intraperitoneal; details: in vivo
[22] = test system: Rattus norvegicus; assay: Hepatotoxicity in neutropenic rat assessed as ALAT level in serum at 4 mg/kg/day, ip administered 72 hrs post infection for 10 days measured on day 13 after infection (Rvb=51.3+/-5.2 U/l); type: toxicity, organism-based; parameters: route intraperitoneal; details: in vivo
[23] = test system: Rattus norvegicus; assay: Renal toxicity in neutropenic rat assessed as […] in serum at 10 mg/kg/day, ip administered 72 hrs post infection for 10 days measured on day 6 after infection (Rvb=34.8+/-5.8 umol/l); type: organism-based; parameters: route intraperitoneal; details: in vivo
[24] = test system: Aspergillus fumigatus; assay: Antifungal activity against Aspergillus fumigatus by CLSI method; type: functional
[25] = test system: Aspergillus fumigatus; assay: Antifungal activity against Aspergillus fumigatus infected in neutropenic rat assessed as survival of rat at 4 mg/kg/day, ip administered 72 hrs post infection for 10 days; type: functional; details: route intraperitoneal
[26] = test system: Rattus norvegicus; assay: Renal toxicity in neutropenic rat assessed as blood urea nitrogen level in serum at 4 mg/kg/day, ip administered 72 hrs post infection for 10 days measured on day 13 after infection (Rvb=5.8+/-0.4 mmol/l); type: organism-based; parameters: route intraperitoneal; details: in vivo
[27] = test system: Rattus norvegicus; assay: Hepatotoxicity in neutropenic rat assessed as ALAT level in serum at 10 mg/kg/day, ip administered 72 hrs post infection for 3 days followed by 4 mg/kg/day, ip for 7 days measured on day 6 after infection (Rvb=43.9+/-7.9 U/l); type: toxicity, organism-based; details: in vivo
[28] = test system: Aspergillus fumigatus; assay: Antifungal activity against Aspergillus fumigatus infected in neutropenic rat assessed as survival of rat at 10 mg/kg/day, ip administered 72 hrs post infection for 10 days; type: functional; details: route intraperitoneal
[29] = test system: Rattus norvegicus; assay: Renal toxicity in neutropenic rat assessed as creatine level in serum at 4 mg/kg/day, ip administered 72 hrs post infection for 10 days measured on day 13 after infection (Rvb=26.7+/-6.1 umol/l); type: organism-based; parameters: route intraperitoneal; details: in vivo
[30] = test system: Aspergillus fumigatus; assay: Antifungal activity against Aspergillus fumigatus by Etest method; type: functional
[31] = test system: Rattus norvegicus; assay: Renal toxicity in neutropenic rat assessed as blood urea nitrogen level in serum at 4 mg/kg/day, ip administered 72 hrs post infection for 10 days measured on day 6 after infection (Rvb=4.4+/-0.5 mmol/l); type: organism-based; parameters: route intraperitoneal; details: in vivo
[32] = test system: Rattus norvegicus; assay: Hepatotoxicity in neutropenic rat assessed as ALAT level in serum at 10 mg/kg/day, ip administered 72 hrs post infection for 3 days followed by 4 mg/kg/day, ip for 7 days measured on day 13 after infection (Rvb=51.3+/-5.2 U/l); type: toxicity, organism-based; details: in vivo

CC[C@H](C)C[C@H](C)CCCCCCCCC(=O)N[C@H]1C[C@@H](O)[C@@H](NCCN)NC(=O)[C@@H]2[C@@H](O)CCN2C(=O)[C@H]([C@H](O)CCN)NC(=O)[C@H]([C@H](O)[C@@H](O)c2ccc(O)cc2)NC(=O)[C@@H]2C[C@@H](O)CN2C(=O)[C@H]([C@@H](C)O)NC1=O [CASPOFUNGIN]
Activity [1]: 6.9 mmol/L | Activity [2]: 50.2 U/L | Activity [3]: 44.3 µmol/L | AUC at 72 h [4]: 549 µg·h/mL | Activity [5]: 31.5 U/L | Activity [6]: 100% | Activity [7]: 138.4 U/L | Activity [8]: 10.9 mmol/L | Activity [9]: 113 U/L | AUC at 240 h [10]: 114 µg·h/mL | Activity [11]: 118 U/L | Activity [12]: 36.4 U/L | Activity [13]: 49.3 U/L | Activity [14]: 31 µmol/L | Activity [15]: 11.4 mmol/L | Activity [16]: 5.9 mmol/L | Activity [17]: 68 U/L | Activity [18]: 36.5 µmol/L | Activity [19]: 28.4 µmol/L | Activity [20]: 93% | Activity [21]: 41.4 U/L | Activity [22]: 94.2 U/L | Activity [23]: 42 µmol/L | MIC [24]: 8 µg/mL (≈ 7.32 µM) | Activity [25]: 27% | Activity [26]: 15.7 mmol/L | Activity [27]: 61.6 U/L | Activity [28]: 67% | Activity [29]: 24 µmol/L | MIC [30]: 0.05 µg/mL (≈ 0.0457 µM) | Activity [31]: 12.2 mmol/L | Activity [32]: 50.5 U/L
